Test results from ChEMBL document CHEMBL5465560, “Selectivity Literature for EUbOPEN Chemogenomic Library” (2024).

Tests used:
[1] = target: T1, Serine/threonine-protein kinase 17B (Homo sapiens) (UniProt O94768); assay: Selectivity interaction (KinomeScan (DiscoverX)) EUB0000666a STK17B; details: at 10 µM
T1 sequence (whole entry): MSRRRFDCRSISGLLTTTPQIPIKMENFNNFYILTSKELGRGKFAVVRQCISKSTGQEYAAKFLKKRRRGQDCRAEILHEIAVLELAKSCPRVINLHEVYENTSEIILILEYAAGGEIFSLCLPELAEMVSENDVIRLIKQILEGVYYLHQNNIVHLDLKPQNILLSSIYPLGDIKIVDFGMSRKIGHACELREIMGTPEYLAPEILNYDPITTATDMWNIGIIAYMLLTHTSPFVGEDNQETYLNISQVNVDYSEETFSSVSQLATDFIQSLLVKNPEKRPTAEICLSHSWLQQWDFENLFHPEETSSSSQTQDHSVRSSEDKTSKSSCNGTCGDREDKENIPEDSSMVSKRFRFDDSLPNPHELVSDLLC

[2] = target: T2, Hormonally up-regulated neu tumor-associated kinase (Homo sapiens) (UniProt P57058); assay: Selectivity interaction (KinomeScan (DiscoverX)) EUB0001079a HUNK; details: at 1 µM
T2 sequence (whole entry): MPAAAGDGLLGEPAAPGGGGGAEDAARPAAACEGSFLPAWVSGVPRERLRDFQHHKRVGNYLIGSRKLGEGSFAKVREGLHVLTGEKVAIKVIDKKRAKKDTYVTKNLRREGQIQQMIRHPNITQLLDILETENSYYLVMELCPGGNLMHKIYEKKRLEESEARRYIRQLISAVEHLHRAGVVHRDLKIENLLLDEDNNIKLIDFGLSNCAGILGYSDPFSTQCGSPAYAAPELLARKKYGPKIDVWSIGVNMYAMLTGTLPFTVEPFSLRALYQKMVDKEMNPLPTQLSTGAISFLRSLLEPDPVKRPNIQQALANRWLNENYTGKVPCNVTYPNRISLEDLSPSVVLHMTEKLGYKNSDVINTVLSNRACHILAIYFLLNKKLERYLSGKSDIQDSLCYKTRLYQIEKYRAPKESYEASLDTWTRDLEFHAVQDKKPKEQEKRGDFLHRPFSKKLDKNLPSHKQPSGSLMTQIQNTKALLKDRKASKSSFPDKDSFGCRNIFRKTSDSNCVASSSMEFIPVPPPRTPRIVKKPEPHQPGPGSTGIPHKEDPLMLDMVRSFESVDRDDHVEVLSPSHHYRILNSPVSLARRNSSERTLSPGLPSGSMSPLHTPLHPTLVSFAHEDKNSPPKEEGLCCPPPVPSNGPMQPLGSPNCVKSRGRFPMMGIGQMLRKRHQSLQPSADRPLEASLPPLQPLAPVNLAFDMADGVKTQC

[3] = target: T3, Tyrosine-protein kinase Tec (Homo sapiens) (UniProt P42680); details: at 10 µM
T3 sequence (whole entry): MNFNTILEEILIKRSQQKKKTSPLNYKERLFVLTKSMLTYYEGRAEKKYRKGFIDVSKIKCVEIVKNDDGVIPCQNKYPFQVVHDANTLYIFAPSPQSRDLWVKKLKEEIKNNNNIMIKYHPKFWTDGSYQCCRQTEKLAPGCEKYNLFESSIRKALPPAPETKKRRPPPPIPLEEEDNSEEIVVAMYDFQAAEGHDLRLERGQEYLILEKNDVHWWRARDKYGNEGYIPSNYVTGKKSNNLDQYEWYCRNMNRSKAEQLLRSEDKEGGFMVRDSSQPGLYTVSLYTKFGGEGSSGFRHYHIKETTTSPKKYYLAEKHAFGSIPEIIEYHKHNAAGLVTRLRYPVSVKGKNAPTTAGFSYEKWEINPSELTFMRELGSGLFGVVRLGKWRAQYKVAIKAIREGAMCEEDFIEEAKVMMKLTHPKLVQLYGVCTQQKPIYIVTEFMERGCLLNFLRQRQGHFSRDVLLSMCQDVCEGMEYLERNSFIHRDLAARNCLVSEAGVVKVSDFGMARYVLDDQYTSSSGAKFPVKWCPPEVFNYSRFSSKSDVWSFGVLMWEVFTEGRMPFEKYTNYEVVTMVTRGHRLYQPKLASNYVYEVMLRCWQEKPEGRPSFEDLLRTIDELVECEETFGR

[4] = target: T4, Inhibitor of nuclear factor kappa-B kinase subunit beta (Homo sapiens) (UniProt O14920); assay: Selectivity interaction (KinomeScan (DiscoverX)) EUB0000045b IKBKB
T4 sequence (whole entry): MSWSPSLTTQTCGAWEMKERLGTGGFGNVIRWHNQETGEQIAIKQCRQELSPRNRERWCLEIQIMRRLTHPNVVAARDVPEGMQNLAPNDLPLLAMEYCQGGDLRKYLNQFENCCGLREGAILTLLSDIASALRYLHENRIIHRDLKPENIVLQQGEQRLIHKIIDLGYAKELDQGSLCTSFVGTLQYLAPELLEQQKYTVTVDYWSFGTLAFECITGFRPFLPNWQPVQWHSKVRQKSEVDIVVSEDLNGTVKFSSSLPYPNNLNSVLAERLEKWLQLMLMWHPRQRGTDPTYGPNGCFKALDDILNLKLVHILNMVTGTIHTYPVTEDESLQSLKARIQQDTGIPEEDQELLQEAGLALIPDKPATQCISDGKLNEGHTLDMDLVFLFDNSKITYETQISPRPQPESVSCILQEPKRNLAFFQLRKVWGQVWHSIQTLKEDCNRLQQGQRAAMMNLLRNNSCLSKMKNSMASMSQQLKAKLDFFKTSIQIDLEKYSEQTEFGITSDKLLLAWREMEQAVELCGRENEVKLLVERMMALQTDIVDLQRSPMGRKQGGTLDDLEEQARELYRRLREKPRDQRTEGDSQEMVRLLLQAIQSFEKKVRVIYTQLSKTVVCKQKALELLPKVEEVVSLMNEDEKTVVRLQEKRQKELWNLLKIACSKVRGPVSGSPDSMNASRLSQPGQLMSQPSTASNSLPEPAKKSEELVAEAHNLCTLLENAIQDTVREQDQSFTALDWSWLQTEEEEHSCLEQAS

[5] = target: Ribosomal protein S6 kinase alpha-6 (Homo sapiens, UniProt Q9UK32); details: at 10 µM
Ribosomal protein S6 kinase alpha-6, sequence (Q9UK32 whole entry): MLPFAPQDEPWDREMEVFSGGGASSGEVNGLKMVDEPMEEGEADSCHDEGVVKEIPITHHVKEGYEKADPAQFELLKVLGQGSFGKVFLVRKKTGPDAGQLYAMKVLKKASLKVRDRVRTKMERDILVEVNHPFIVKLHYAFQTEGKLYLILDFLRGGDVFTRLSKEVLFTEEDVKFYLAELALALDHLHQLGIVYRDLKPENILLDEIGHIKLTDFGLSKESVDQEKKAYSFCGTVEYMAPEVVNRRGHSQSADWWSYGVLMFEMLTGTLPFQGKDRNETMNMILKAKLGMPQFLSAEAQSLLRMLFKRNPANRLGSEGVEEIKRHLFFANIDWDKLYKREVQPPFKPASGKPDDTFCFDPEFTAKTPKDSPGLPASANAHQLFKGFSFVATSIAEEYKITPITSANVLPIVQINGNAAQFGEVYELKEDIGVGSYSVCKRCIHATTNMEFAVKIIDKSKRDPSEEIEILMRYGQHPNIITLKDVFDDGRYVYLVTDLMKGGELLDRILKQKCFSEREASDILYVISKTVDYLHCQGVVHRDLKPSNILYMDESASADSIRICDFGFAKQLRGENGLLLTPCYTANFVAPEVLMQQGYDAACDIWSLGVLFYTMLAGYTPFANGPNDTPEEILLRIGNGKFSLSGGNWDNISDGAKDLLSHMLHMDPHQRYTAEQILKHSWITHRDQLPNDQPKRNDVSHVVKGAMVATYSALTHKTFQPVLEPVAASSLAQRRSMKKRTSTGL

[6] = target: Phosphatidylinositol 4-phosphate 5-kinase type-1 alpha (Homo sapiens) (UniProt Q99755); assay: Selectivity interaction (KinomeScan (DiscoverX)) EUB0001619a PIP5K1A; details: at 1 µM
Phosphatidylinositol 4-phosphate 5-kinase type-1 alpha (Homo sapiens), sequence (Q99755 whole entry): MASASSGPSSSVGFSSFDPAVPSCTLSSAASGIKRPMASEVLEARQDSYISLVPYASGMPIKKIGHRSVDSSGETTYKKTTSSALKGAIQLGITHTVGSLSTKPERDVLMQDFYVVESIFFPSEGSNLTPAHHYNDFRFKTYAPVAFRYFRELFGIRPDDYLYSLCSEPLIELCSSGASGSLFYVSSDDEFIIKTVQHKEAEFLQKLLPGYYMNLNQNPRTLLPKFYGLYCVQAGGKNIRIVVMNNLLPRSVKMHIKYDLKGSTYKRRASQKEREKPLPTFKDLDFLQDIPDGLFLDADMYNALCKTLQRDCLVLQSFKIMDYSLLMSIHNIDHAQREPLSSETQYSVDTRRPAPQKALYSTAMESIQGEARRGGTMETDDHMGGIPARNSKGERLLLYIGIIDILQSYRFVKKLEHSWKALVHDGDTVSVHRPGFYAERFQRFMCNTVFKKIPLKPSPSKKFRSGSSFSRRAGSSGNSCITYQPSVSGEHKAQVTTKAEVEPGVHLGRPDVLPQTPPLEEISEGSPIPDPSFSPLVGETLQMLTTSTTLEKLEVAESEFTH

[7] = target: Serine/threonine-protein kinase 38 (Homo sapiens) (UniProt Q15208); assay: Selectivity interaction (KinomeScan (DiscoverX)) EUB0000655a STK38; details: at 10 µM
Serine/threonine-protein kinase 38 (Homo sapiens), sequence (Q15208 2-465 limits assumed): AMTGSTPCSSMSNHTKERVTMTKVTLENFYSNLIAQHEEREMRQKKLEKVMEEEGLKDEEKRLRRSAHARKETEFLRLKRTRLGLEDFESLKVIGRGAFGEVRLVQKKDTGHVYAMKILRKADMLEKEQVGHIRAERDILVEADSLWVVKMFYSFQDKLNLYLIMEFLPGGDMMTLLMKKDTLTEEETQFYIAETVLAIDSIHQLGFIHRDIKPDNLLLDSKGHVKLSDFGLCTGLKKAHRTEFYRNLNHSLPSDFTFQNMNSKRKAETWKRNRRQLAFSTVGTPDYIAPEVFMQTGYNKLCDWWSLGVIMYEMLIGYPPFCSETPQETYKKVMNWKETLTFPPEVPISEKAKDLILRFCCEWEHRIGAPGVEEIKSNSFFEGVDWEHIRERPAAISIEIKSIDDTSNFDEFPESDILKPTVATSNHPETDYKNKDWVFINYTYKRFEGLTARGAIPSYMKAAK

[8] = target: Mitogen-activated protein kinase 8 (Homo sapiens, UniProt P45983); assay: Selectivity interaction (KinomeScan (DiscoverX)) EUB0000695a MAPK8; details: at 100 nM
Mitogen-activated protein kinase 8, sequence (P45983 whole entry): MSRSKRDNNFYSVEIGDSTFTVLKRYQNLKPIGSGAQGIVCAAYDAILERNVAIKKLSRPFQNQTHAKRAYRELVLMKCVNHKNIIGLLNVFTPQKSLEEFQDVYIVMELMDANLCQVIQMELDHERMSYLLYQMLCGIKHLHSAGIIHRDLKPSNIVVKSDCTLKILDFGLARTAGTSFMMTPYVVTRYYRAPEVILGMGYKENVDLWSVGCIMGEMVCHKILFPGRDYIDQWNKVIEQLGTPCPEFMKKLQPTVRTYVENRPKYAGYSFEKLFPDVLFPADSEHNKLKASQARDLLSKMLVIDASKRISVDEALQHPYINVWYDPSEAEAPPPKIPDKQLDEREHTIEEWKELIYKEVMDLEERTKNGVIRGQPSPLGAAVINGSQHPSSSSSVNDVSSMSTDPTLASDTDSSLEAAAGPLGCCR

[9] = target: Eukaryotic translation initiation factor 2-alpha kinase 1 (Homo sapiens) (UniProt Q9BQI3); assay: Selectivity interaction (KinomeScan (DiscoverX)) EUB0000607a EIF2AK1; details: at 10 µM
Eukaryotic translation initiation factor 2-alpha kinase 1 (Homo sapiens), sequence (Q9BQI3 whole entry): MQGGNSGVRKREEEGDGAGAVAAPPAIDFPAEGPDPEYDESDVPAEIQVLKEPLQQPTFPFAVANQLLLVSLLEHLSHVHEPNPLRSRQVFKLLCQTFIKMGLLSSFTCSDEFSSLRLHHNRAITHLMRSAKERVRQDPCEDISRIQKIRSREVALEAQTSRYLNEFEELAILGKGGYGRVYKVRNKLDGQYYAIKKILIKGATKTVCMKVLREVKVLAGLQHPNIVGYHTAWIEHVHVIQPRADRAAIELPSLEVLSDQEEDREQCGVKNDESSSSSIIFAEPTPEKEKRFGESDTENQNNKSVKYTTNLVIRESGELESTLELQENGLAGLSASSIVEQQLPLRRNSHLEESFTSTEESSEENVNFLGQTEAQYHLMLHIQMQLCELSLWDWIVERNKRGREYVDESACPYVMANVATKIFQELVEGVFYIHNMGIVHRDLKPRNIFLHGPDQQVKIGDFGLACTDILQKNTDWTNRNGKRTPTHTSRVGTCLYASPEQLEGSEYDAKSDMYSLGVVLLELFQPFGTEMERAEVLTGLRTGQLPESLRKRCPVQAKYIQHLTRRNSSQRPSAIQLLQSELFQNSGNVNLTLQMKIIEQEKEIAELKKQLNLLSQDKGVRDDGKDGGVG

`O=C(NOC[C@H](O)CO)c1ccc(F)c(F)c1Nc1ccc(I)cc1F` showed a % of control [1] of 100%.

Molecule `Nc1cnc(N2CCc3cc(S(=O)(=O)Nc4c(F)cc(Cl)cc4F)cc(N4CCCC4=O)c32)nc1` [TP-020n] has a % of control [2] of 99%.

With `COCC(=O)NC/C=C/c1ccc2ncnc(Nc3ccc(Oc4ccc(C)nc4)c(C)c3)c2c1` [CP-724714] the % of control [3] was 73%.

For `C=CC(=O)Nc1cc(-n2c(=O)ccc3cnc4ccc(-c5ccc(NS(C)(=O)=O)cc5)cc4c32)ccc1C`, the % of control ([4]; at 1 µM) was 93% and the % of control ([4]; at 10 µM) was 100%.

`Cc1cc([C@@H](C)Nc2ccccc2C(=O)O)c2nc(N3CCOCC3)cc(=O)n2c1` [AZD-6482] showed a % of control [5] of 71%.

Work on `N#Cc1cccc(-c2c[nH]c3ncnc(N4CCOCC4)c23)c1` yielded a % of control [6] of 20%.

`CN(C)CCOc1ccc(-c2nc(-c3ccncc3)c(-c3ccc4c(c3)CC/C4=N\O)[nH]2)cc1` gave a % of control [7] of 90%.

Molecule `Cc1cc(F)c(C(=O)Nc2cccc(-c3nncn3C(C)C)n2)cc1-n1cnc(C2CC2)c1` has a % of control [8] of 72%.

In the case of `CNC(=O)Nc1ccc(-c2nc(N3CC4CCC(C3)O4)c3cnn(C4CCC5(CC4)OCCO5)c3n2)cc1`, the % of control [9] is reported as 100%.
